{
  "source": "the NIST ThermoML archive (doi:10.1021/acs.jced.8b01157)",
  "test": "mn = molality of the nth substance listed, in mol/kg",
  "settings": "100 kPa, Liquid; for speed of sound: Frequency=3 MHz, Single path-length method; for mass density: Vibrating tube method",
  "note": "± gives the expanded uncertainty stated by the source.",
  "data": [
    {"smiles": "N.O=P(O)(O)O", "note": "[ammonium dihydrogen phosphate] + O", "values": [
      {"measurement": "speed of sound", "setting": "288.15 K, m1 = 0.5", "value": "1507.3 ± 2.2", "unit": "m/s"},
      {"measurement": "speed of sound", "setting": "288.15 K, m1 = 1", "value": "1544.3 ± 2.5", "unit": "m/s"},
      {"measurement": "speed of sound", "setting": "288.15 K, m1 = 1.5", "value": "1579 ± 2.9", "unit": "m/s"},
      {"measurement": "mass density", "setting": "288.15 K, m1 = 0.5", "value": "1030 ± 1.1", "unit": "kg/m3"},
      {"measurement": "mass density", "setting": "288.15 K, m1 = 1", "value": "1057.62 ± 1.5", "unit": "kg/m3"},
      {"measurement": "mass density", "setting": "288.15 K, m1 = 1.5", "value": "1082.56 ± 1.8", "unit": "kg/m3"},
      {"measurement": "speed of sound", "setting": "298.15 K, m1 = 0.5", "value": "1534.9 ± 2.1", "unit": "m/s"},
      {"measurement": "speed of sound", "setting": "298.15 K, m1 = 1", "value": "1569.7 ± 2.4", "unit": "m/s"},
      {"measurement": "speed of sound", "setting": "298.15 K, m1 = 1.5", "value": "1602.4 ± 2.7", "unit": "m/s"},
      {"measurement": "mass density", "setting": "298.15 K, m1 = 0.5", "value": "1026.45 ± 1.1", "unit": "kg/m3"},
      {"measurement": "mass density", "setting": "298.15 K, m1 = 1", "value": "1054.22 ± 1.5", "unit": "kg/m3"},
      {"measurement": "mass density", "setting": "298.15 K, m1 = 1.5", "value": "1079.6 ± 1.8", "unit": "kg/m3"},
      {"measurement": "speed of sound", "setting": "308.15 K, m1 = 0.5", "value": "1555.9 ± 2.1", "unit": "m/s"},
      {"measurement": "speed of sound", "setting": "308.15 K, m1 = 1", "value": "1588.9 ± 2.4", "unit": "m/s"},
      {"measurement": "speed of sound", "setting": "308.15 K, m1 = 1.5", "value": "1619.9 ± 2.7", "unit": "m/s"},
      {"measurement": "mass density", "setting": "308.15 K, m1 = 0.5", "value": "1023.33 ± 1.1", "unit": "kg/m3"},
      {"measurement": "mass density", "setting": "308.15 K, m1 = 1", "value": "1050.98 ± 1.5", "unit": "kg/m3"},
      {"measurement": "mass density", "setting": "308.15 K, m1 = 1.5", "value": "1075.85 ± 1.8", "unit": "kg/m3"},
      {"measurement": "speed of sound", "setting": "318.15 K, m1 = 0.5", "value": "1570.9 ± 2.1", "unit": "m/s"},
      {"measurement": "speed of sound", "setting": "318.15 K, m1 = 1", "value": "1602.6 ± 2.4", "unit": "m/s"},
      {"measurement": "speed of sound", "setting": "318.15 K, m1 = 1.5", "value": "1631.1 ± 2.7", "unit": "m/s"},
      {"measurement": "mass density", "setting": "318.15 K, m1 = 0.5", "value": "1019.74 ± 1.1", "unit": "kg/m3"},
      {"measurement": "mass density", "setting": "318.15 K, m1 = 1", "value": "1046.48 ± 1.4", "unit": "kg/m3"},
      {"measurement": "mass density", "setting": "318.15 K, m1 = 1.5", "value": "1071.76 ± 1.8", "unit": "kg/m3"}
    ]},
    {"smiles": "N.N.O=P(O)(O)O", "note": "[diammonium hydrogen phosphate] + O", "values": [
      {"measurement": "speed of sound", "setting": "288.15 K, m1 = 0.5", "value": "1517.7 ± 2.3", "unit": "m/s"},
      {"measurement": "speed of sound", "setting": "288.15 K, m1 = 1", "value": "1572 ± 3", "unit": "m/s"},
      {"measurement": "speed of sound", "setting": "288.15 K, m1 = 1.5", "value": "1629.6 ± 4", "unit": "m/s"},
      {"measurement": "mass density", "setting": "288.15 K, m1 = 0.5", "value": "1032.61 ± 1.2", "unit": "kg/m3"},
      {"measurement": "mass density", "setting": "288.15 K, m1 = 1", "value": "1066.4 ± 1.6", "unit": "kg/m3"},
      {"measurement": "mass density", "setting": "288.15 K, m1 = 1.5", "value": "1097.53 ± 2.1", "unit": "kg/m3"},
      {"measurement": "speed of sound", "setting": "298.15 K, m1 = 0.5", "value": "1544.3 ± 2.3", "unit": "m/s"},
      {"measurement": "speed of sound", "setting": "298.15 K, m1 = 1", "value": "1597.9 ± 2.9", "unit": "m/s"},
      {"measurement": "speed of sound", "setting": "298.15 K, m1 = 1.5", "value": "1650.4 ± 3.6", "unit": "m/s"},
      {"measurement": "mass density", "setting": "298.15 K, m1 = 0.5", "value": "1030.71 ± 1.2", "unit": "kg/m3"},
      {"measurement": "mass density", "setting": "298.15 K, m1 = 1", "value": "1064.03 ± 1.6", "unit": "kg/m3"},
      {"measurement": "mass density", "setting": "298.15 K, m1 = 1.5", "value": "1095.18 ± 2.1", "unit": "kg/m3"},
      {"measurement": "speed of sound", "setting": "308.15 K, m1 = 0.5", "value": "1564.8 ± 2.3", "unit": "m/s"},
      {"measurement": "speed of sound", "setting": "308.15 K, m1 = 1", "value": "1614.1 ± 2.8", "unit": "m/s"},
      {"measurement": "speed of sound", "setting": "308.15 K, m1 = 1.5", "value": "1664.4 ± 3.6", "unit": "m/s"},
      {"measurement": "mass density", "setting": "308.15 K, m1 = 0.5", "value": "1026.1 ± 1.2", "unit": "kg/m3"},
      {"measurement": "mass density", "setting": "308.15 K, m1 = 1", "value": "1060.22 ± 1.6", "unit": "kg/m3"},
      {"measurement": "mass density", "setting": "308.15 K, m1 = 1.5", "value": "1090.11 ± 2.1", "unit": "kg/m3"},
      {"measurement": "speed of sound", "setting": "318.15 K, m1 = 0.5", "value": "1581.3 ± 2.2", "unit": "m/s"},
      {"measurement": "speed of sound", "setting": "318.15 K, m1 = 1", "value": "1628.3 ± 2.8", "unit": "m/s"},
      {"measurement": "speed of sound", "setting": "318.15 K, m1 = 1.5", "value": "1676.6 ± 3.5", "unit": "m/s"},
      {"measurement": "mass density", "setting": "318.15 K, m1 = 0.5", "value": "1022.85 ± 1.2", "unit": "kg/m3"},
      {"measurement": "mass density", "setting": "318.15 K, m1 = 1", "value": "1055.59 ± 1.6", "unit": "kg/m3"},
      {"measurement": "mass density", "setting": "318.15 K, m1 = 1.5", "value": "1086.19 ± 2.1", "unit": "kg/m3"}
    ]}
  ]
}
